According to publication PMC5218480 (PLoS ONE, 2017):

Test system: MV-4-11 cells
Assay: Gene expression microarray analysis (Affymetrix PrimeView) and GSEA
Type: cell-based, human
Design: RFU PODN (11730768_x_at) / Fold change /veh PODN (11730768_x_at) / RFU LINC00158 (11744669_a_at) / Fold change /veh LINC00158 (11744669_a_at) / RFU DUSP10 (11751237_a_at) / Fold change /veh DUSP10 (11751237_a_at) / RFU ID3 (11757404_x_at) / Fold change /veh ID3 (11757404_x_at) / RFU PLEKHG5 (11737974_s_at) / Fold change /veh PLEKHG5 (11737974_s_at) / RFU LRRC4B (11730491_at) / Fold change /veh LRRC4B (11730491_at) / RFU GIMAP4 (11747438_a_at) / Fold change /veh GIMAP4 (11747438_a_at) / RFU KRT8 (11758183_x_at) / Fold change /veh KRT8 (11758183_x_at) / RFU CNN1 (11734310_a_at) / Fold change /veh CNN1 (11734310_a_at) / RFU VPS37D (11726825_at) / Fold change /veh VPS37D (11726825_at) / RFU C10orf10 (11716522_x_at) / Fold change /veh C10orf10 (11716522_x_at) / RFU KIR2DL2 /// KIR2DL4 /// KIR2DL5A /// KIR2DL5B /// KIR2DS1 /// KIR2DS2 /// KIR2DS3 /// KIR2DS4 /// KIR3DL3 /// KIR3DL3 /// KIR3DS1 (11738374_at) / Fold change /veh KIR2DL2 /// KIR2DL4 /// KIR2DL5A /// KIR2DL5B /// KIR2DS1 /// KIR2DS2 /// KIR2DS3 /// KIR2DS4 /// KIR3DL3 /// KIR3DL3 /// KIR3DS1 (11738374_at) / RFU C1QL1 (11718748_at) / Fold change /veh C1QL1 (11718748_at) / RFU TMPRSS4 (11747572_a_at) / Fold change /veh TMPRSS4 (11747572_a_at) / RFU HAMP (11756126_x_at) / Fold change /veh HAMP (11756126_x_at) / RFU RNFT2 (11725882_a_at) / Fold change /veh RNFT2 (11725882_a_at) / RFU NR4A2 (11747474_a_at) / Fold change /veh NR4A2 (11747474_a_at) / RFU ABCC12 (11746883_a_at) / Fold change /veh ABCC12 (11746883_a_at) / RFU TMEM136 (11760407_x_at) / Fold change /veh TMEM136 (11760407_x_at) / RFU CLDN22 /// WWC2 (11732394_at) / Fold change /veh CLDN22 /// WWC2 (11732394_at) / RFU HLA-DPB1 (11760878_x_at) / Fold change /veh HLA-DPB1 (11760878_x_at) / RFU SPINT1 (11716480_a_at) / Fold change /veh SPINT1 (11716480_a_at) / RFU GAP43 (11754022_s_at) / Fold change /veh GAP43 (11754022_s_at) / RFU A4GNT (11735810_at) / Fold change /veh A4GNT (11735810_at) / RFU PRB3 (11715151_x_at) / Fold change /veh PRB3 (11715151_x_at) / RFU TUBB4B (11761932_at) / Fold change /veh TUBB4B (11761932_at) / RFU CAPN14 (11732068_a_at) / Fold change /veh CAPN14 (11732068_a_at) / RFU TMCC2 (11721928_a_at) / Fold change /veh TMCC2 (11721928_a_at) / RFU IRGQ (11745062_a_at) / Fold change /veh IRGQ (11745062_a_at) / RFU FAM174B (11720279_a_at) / Fold change /veh FAM174B (11720279_a_at) / RFU TMPRSS4 (11748680_a_at) / Fold change /veh TMPRSS4 (11748680_a_at) / RFU FAM212B (11763350_a_at) / Fold change /veh FAM212B (11763350_a_at) / RFU PLEKHG5 (11743358_a_at) / Fold change /veh PLEKHG5 (11743358_a_at) / RFU ZSCAN30 (11745921_a_at) / Fold change /veh ZSCAN30 (11745921_a_at) / RFU CMKLR1 (11741424_a_at) / Fold change /veh CMKLR1 (11741424_a_at) / RFU LOC101060620 /// MAPK8IP1 (11723275_at) / Fold change /veh LOC101060620 /// MAPK8IP1 (11723275_at) / RFU SPTSSB (11747773_x_at) / Fold change /veh SPTSSB (11747773_x_at) / RFU PRSS12 (11739890_at) / Fold change /veh PRSS12 (11739890_at) / RFU BIN1 (11741810_x_at) / Fold change /veh BIN1 (11741810_x_at) / RFU WNT11 (11732464_a_at) / Fold change /veh WNT11 (11732464_a_at) / RFU C10orf10 (11716521_a_at) / Fold change /veh C10orf10 (11716521_a_at) / RFU C5orf56 (11738089_at) / Fold change /veh C5orf56 (11738089_at) / RFU CYB561 (11721691_x_at) / Fold change /veh CYB561 (11721691_x_at) / RFU ANKRD19P (11752326_a_at) / Fold change /veh ANKRD19P (11752326_a_at) / RFU OR2T12 /// OR2T33 /// OR2T8 (11738714_s_at) / Fold change /veh OR2T12 /// OR2T33 /// OR2T8 (11738714_s_at) / RFU VCAN (11748164_a_at) / Fold change /veh VCAN (11748164_a_at) / RFU JSRP1 (11732532_at) / Fold change /veh JSRP1 (11732532_at) / RFU KRTAP10-11 (11738290_x_at) / Fold change /veh KRTAP10-11 (11738290_x_at) / RFU MYO3A (11730013_a_at) / Fold change /veh MYO3A (11730013_a_at) / RFU EBF3 (11725865_a_at) / Fold change /veh EBF3 (11725865_a_at) / RFU CAMK2N1 (11719241_x_at) / Fold change /veh CAMK2N1 (11719241_x_at) / RFU C5orf56 (11738088_a_at) / Fold change /veh C5orf56 (11738088_a_at) / RFU OLFML3 (11715873_a_at) / Fold change /veh OLFML3 (11715873_a_at) / RFU LOC100653217 /// NTM (11731650_a_at) / Fold change /veh LOC100653217 /// NTM (11731650_a_at) / RFU MAPK11 (11762145_a_at) / Fold change /veh MAPK11 (11762145_a_at) / RFU FIZ1 (11724087_x_at) / Fold change /veh FIZ1 (11724087_x_at) / RFU OASL (11726364_x_at) / Fold change /veh OASL (11726364_x_at) / RFU SOX15 (11748057_x_at) / Fold change /veh SOX15 (11748057_x_at) / RFU CD79A (11719716_a_at) / Fold change /veh CD79A (11719716_a_at) / RFU HIST1H1D (11736915_at) / Fold change /veh HIST1H1D (11736915_at) / RFU CASKIN2 (11723855_a_at) / Fold change /veh CASKIN2 (11723855_a_at) / RFU LOC730098 (11760151_x_at) / Fold change /veh LOC730098 (11760151_x_at) / RFU OR4N2 (11742367_at) / Fold change /veh OR4N2 (11742367_at) / RFU PRRT2 (11749266_a_at) / Fold change /veh PRRT2 (11749266_a_at) / RFU SNX32 (11753110_a_at) / Fold change /veh SNX32 (11753110_a_at) / RFU CDHR5 (11726645_a_at) / Fold change /veh CDHR5 (11726645_a_at) / RFU RCAN1 (11760418_a_at) / Fold change /veh RCAN1 (11760418_a_at) / RFU FAM167A (11723789_a_at) / Fold change /veh FAM167A (11723789_a_at) / RFU FAM26E (11764081_at) / Fold change /veh FAM26E (11764081_at) / RFU ISYNA1 (11749810_s_at) / Fold change /veh ISYNA1 (11749810_s_at) / RFU ACY1 (11761880_at) / Fold change /veh ACY1 (11761880_at) / RFU 11764098_at / Fold change /veh 11764098_at / RFU SAMD14 (11745864_x_at) / Fold change /veh SAMD14 (11745864_x_at) / RFU NPB (11741838_a_at) / Fold change /veh NPB (11741838_a_at) / RFU TMPRSS6 (11731388_a_at) / Fold change /veh TMPRSS6 (11731388_a_at) / RFU KRTAP10-2 (11738614_at) / Fold change /veh KRTAP10-2 (11738614_at) / RFU ARHGAP8 /// PRR5-ARHGAP8 (11727945_x_at) / Fold change /veh ARHGAP8 /// PRR5-ARHGAP8 (11727945_x_at) / RFU KRTAP5-7 /// NADSYN1 (11734609_at) / Fold change /veh KRTAP5-7 /// NADSYN1 (11734609_at) / RFU RASL12 (11751679_a_at) / Fold change /veh RASL12 (11751679_a_at) / RFU CDKN2B (11736163_a_at) / Fold change /veh CDKN2B (11736163_a_at) / RFU PRF1 (11729649_at) / Fold change /veh PRF1 (11729649_at) / RFU, ZNF638 /// ZNF638-IT1 / Fold change vs veh, ZNF638 /// ZNF638-IT1 / RFU, PANK3 / Fold change vs veh, PANK3 / RFU, SH3YL1 / Fold change vs veh, SH3YL1 / RFU, ZEB2 / Fold change vs veh, ZEB2 / RFU, NRIP1 / Fold change vs veh, NRIP1 / RFU, PTTG1IP / Fold change vs veh, PTTG1IP / RFU, CAPN2 / Fold change vs veh, CAPN2 / RFU, MED14 / Fold change vs veh, MED14 / RFU, SNORA58 / Fold change vs veh, SNORA58 / RFU, C1orf63 / Fold change vs veh, C1orf63 / RFU, LRRFIP1 / Fold change vs veh, LRRFIP1 / RFU, NDUFAF7 / Fold change vs veh, NDUFAF7 / RFU, SLC12A2 / Fold change vs veh, SLC12A2 / RFU, IBTK / Fold change vs veh, IBTK / RFU, ESF1 / Fold change vs veh, ESF1 / Fold change vs veh, TMEM50B / RFU, TAOK1 / Fold change vs veh, TAOK1 / RFU, ACBD3 / Fold change vs veh, ACBD3 / RFU, TMA16 / Fold change vs veh, TMA16 / RFU, RWDD3 / Fold change vs veh, RWDD3 / RFU, BCAT1 / Fold change vs veh, BCAT1 / RFU, EDEM3 / Fold change vs veh, EDEM3 / RFU, TMEM33 / Fold change vs veh, TMEM33 / RFU, WDR75 / Fold change vs veh, WDR75 / RFU, AHCTF1 / Fold change vs veh, AHCTF1 / RFU, TFRC / Fold change vs veh, TFRC / RFU, ZDHHC17 / Fold change vs veh, ZDHHC17 / RFU, NOM1 / Fold change vs veh, NOM1 / RFU, ARL8B / Fold change vs veh, ARL8B / RFU, ZBTB11 / Fold change vs veh, ZBTB11 / RFU, TAMM41 / Fold change vs veh, TAMM41 / RFU, KIAA1704 /// LOC100996395 / Fold change vs veh, KIAA1704 /// LOC100996395 / RFU, ING1 / Fold change vs veh, ING1 / RFU, TRMT61B / Fold change vs veh, TRMT61B / RFU, FUBP3 / Fold change vs veh, FUBP3 / RFU, TP53 / Fold change vs veh, TP53 / RFU, TNKS2 / Fold change vs veh, TNKS2 / RFU, ZFP14 / Fold change vs veh, ZFP14 / RFU, ACTR2 / Fold change vs veh, ACTR2 / RFU, PPP3R1 / Fold change vs veh, PPP3R1 / RFU, PIK3R1 / Fold change vs veh, PIK3R1 / RFU, HNRNPA1 / Fold change vs veh, HNRNPA1 / RFU, RNF170 / Fold change vs veh, RNF170 / RFU, ZNF28 / Fold change vs veh, ZNF28 / RFU, RNGTT / Fold change vs veh, RNGTT / RFU, OGT / Fold change vs veh, OGT / RFU, BRD1 / Fold change vs veh, BRD1 / RFU, MARS / Fold change vs veh, MARS / RFU, ZNF655 / Fold change vs veh, ZNF655 / RFU, FAHD1 / Fold change vs veh, FAHD1 / RFU, BDP1 / Fold change vs veh, BDP1 / RFU, LRRCC1 / Fold change vs veh, LRRCC1 / RFU, ARID1A / Fold change vs veh, ARID1A / RFU, ZNF146 / Fold change vs veh, ZNF146 / RFU, ZNF330 / Fold change vs veh, ZNF330 / RFU, GPN3 / Fold change vs veh, GPN3 / RFU, C9orf123 / Fold change vs veh, C9orf123 / RFU, N4BP2L2 / Fold change vs veh, N4BP2L2 / RFU, ARFIP1 / Fold change vs veh, ARFIP1 / RFU, FAM179B / Fold change vs veh, FAM179B / RFU, BCL10 / Fold change vs veh, BCL10 / RFU, UHRF1BP1L / Fold change vs veh, UHRF1BP1L / RFU, BET1 / Fold change vs veh, BET1 / RFU, CNOT2 / Fold change vs veh, CNOT2 / RFU, ZNF268 / Fold change vs veh, ZNF268 / Fold change vs veh, ZNF507 / RFU, DGCR2 / Fold change vs veh, DGCR2 / RFU, WDSUB1 / Fold change vs veh, WDSUB1 / Fold change vs veh, HSP90B1 /// MIR3652 / RFU, ADSS / Fold change vs veh, ADSS / RFU, GK / Fold change vs veh, GK / RFU, ZNF148 / Fold change vs veh, ZNF148 / RFU, TAF9 / Fold change vs veh, TAF9 / RFU, SLC1A5 / Fold change vs veh, SLC1A5 / RFU, SLMO2 / Fold change vs veh, SLMO2 / RFU, ABCC4 / Fold change vs veh, ABCC4 / RFU, LOC101060439 /// RAP1B / Fold change vs veh, LOC101060439 /// RAP1B / RFU, RFX7 / Fold change vs veh, RFX7 / RFU, GTPBP10 / Fold change vs veh, GTPBP10 / RFU, CNEP1R1 / Fold change vs veh, CNEP1R1 / RFU, BIVM-ERCC5 /// ERCC5 / Fold change vs veh, BIVM-ERCC5 /// ERCC5 / RFU, ILF3 / Fold change vs veh, ILF3 / RFU 11762660_at / Fold change /veh 11762660_at / RFU VCAN (11757783_s_at) / Fold change /veh VCAN (11757783_s_at) / RFU DDX43 (11728927_at) / Fold change /veh DDX43 (11728927_at) / RFU KRT8 (11758188_x_at) / Fold change /veh KRT8 (11758188_x_at) / RFU NKD1 (11759106_at) / Fold change /veh NKD1 (11759106_at) / RFU SRD5A1 (11742802_a_at) / Fold change /veh SRD5A1 (11742802_a_at) / RFU TPSAB1 /// TPSB2 (11721975_s_at) / Fold change /veh TPSAB1 /// TPSB2 (11721975_s_at) / RFU GSTM3 (11746129_a_at) / Fold change /veh GSTM3 (11746129_a_at) / RFU IL23R (11737362_x_at) / Fold change /veh IL23R (11737362_x_at) / RFU TMEM51 (11727254_a_at) / Fold change /veh TMEM51 (11727254_a_at) / RFU PIWIL2 (11732686_x_at) / Fold change /veh PIWIL2 (11732686_x_at) / RFU ORM1 (11744905_x_at) / Fold change /veh ORM1 (11744905_x_at) / RFU CCDC152 (11743942_at) / Fold change /veh CCDC152 (11743942_at) / RFU ECM1 (11717891_a_at) / Fold change /veh ECM1 (11717891_a_at) / RFU IL23R (11748794_a_at) / Fold change /veh IL23R (11748794_a_at) / RFU TNFAIP8L3 (11732012_x_at) / Fold change /veh TNFAIP8L3 (11732012_x_at) / RFU MBOAT4 (11741988_at) / Fold change /veh MBOAT4 (11741988_at) / RFU 11764193_at / Fold change /veh 11764193_at / RFU TMEM53 (11763286_at) / Fold change /veh TMEM53 (11763286_at) / RFU MAGEB2 (11727129_at) / Fold change /veh MAGEB2 (11727129_at) / RFU TMEM200A (11744735_a_at) / Fold change /veh TMEM200A (11744735_a_at) / RFU CCDC152 (11751479_a_at) / Fold change /veh CCDC152 (11751479_a_at) / RFU FAM211A (11726209_a_at) / Fold change /veh FAM211A (11726209_a_at) / RFU RGS16 (11746705_a_at) / Fold change /veh RGS16 (11746705_a_at) / RFU VCAN (11755009_s_at) / Fold change /veh VCAN (11755009_s_at) / RFU RHOB (11743442_s_at) / Fold change /veh RHOB (11743442_s_at) / RFU RGS16 (11720943_a_at) / Fold change /veh RGS16 (11720943_a_at) / RFU RGS16 (11720944_at) / Fold change /veh RGS16 (11720944_at) / RFU, VPS4B / Fold change vs veh, VPS4B / RFU, CREB1 / Fold change vs veh, CREB1 / RFU, DNAJC13 / Fold change vs veh, DNAJC13 / RFU, GNAQ / Fold change vs veh, GNAQ / RFU, CDK5R1 / Fold change vs veh, CDK5R1 / RFU, ZRANB3 / Fold change vs veh, ZRANB3 / RFU, CUL4A / Fold change vs veh, CUL4A / RFU, CCNY / Fold change vs veh, CCNY / RFU, UFL1 / Fold change vs veh, UFL1 / RFU, COG3 / Fold change vs veh, COG3 / RFU, DIAPH2 / Fold change vs veh, DIAPH2 / RFU, SKA2 / Fold change vs veh, SKA2 / RFU, AFF3 / Fold change vs veh, AFF3 / RFU, LMF1 / Fold change vs veh, LMF1 / RFU, IPO11 / Fold change vs veh, IPO11 / RFU, DFFB / Fold change vs veh, DFFB / RFU, FOXP1 / Fold change vs veh, FOXP1 / RFU, CARD8 / Fold change vs veh, CARD8 / RFU, STRN3 / Fold change vs veh, STRN3 / RFU, ADK / Fold change vs veh, ADK / RFU, RASSF2 / Fold change vs veh, RASSF2 / RFU, WIPF1 / Fold change vs veh, WIPF1 / RFU, LARP1B / Fold change vs veh, LARP1B / RFU, RASA1 / Fold change vs veh, RASA1 / RFU, RB1 / Fold change vs veh, RB1 / RFU, PPFIA1 / Fold change vs veh, PPFIA1 / RFU, MAT2A / Fold change vs veh, MAT2A / RFU, CCT5 / Fold change vs veh, CCT5 / RFU, WDR92 / Fold change vs veh, WDR92 / RFU, CUX1 / Fold change vs veh, CUX1 / RFU, TTC7A / Fold change vs veh, TTC7A / RFU, TMEM135 / Fold change vs veh, TMEM135 / RFU, DEPTOR / Fold change vs veh, DEPTOR / RFU, CPM / Fold change vs veh, CPM / RFU, DNAJB6 / Fold change vs veh, DNAJB6 / RFU, CACNA2D3 / Fold change vs veh, CACNA2D3 / RFU, DTX4 / Fold change vs veh, DTX4 / RFU, TFCP2 / Fold change vs veh, TFCP2 / RFU, GMCL1 /// GMCL1P1 / Fold change vs veh, GMCL1 /// GMCL1P1 / RFU, AEBP2 / Fold change vs veh, AEBP2 / RFU, SNHG1 /// SNORD22 /// SNORD25 /// SNORD26 /// SNORD27 /// SNORD28 /// SNORD29 /// SNORD31 / Fold change vs veh, SNHG1 /// SNORD22 /// SNORD25 /// SNORD26 /// SNORD27 /// SNORD28 /// SNORD29 /// SNORD31 / Fold change (Aza/veh), C12orf56 (ProbeSet 11735607_a_at) / Fold change (ACY-1035/veh), C12orf56 (ProbeSet 11735607_a_at) / Fold change (Aza/veh), FGFR1OP (ProbeSet 11751329_s_at) / Fold change (ACY-1035/veh), FGFR1OP (ProbeSet 11751329_s_at) / Fold change (Aza/veh), VPS36 (ProbeSet 11739960_a_at) / Fold change (ACY-1035/veh), VPS36 (ProbeSet 11739960_a_at) / RFU SYPL1 (11715823_x_at) / Fold change /veh SYPL1 (11715823_x_at) / RFU IGFBP7 (11715501_s_at) / Fold change /veh IGFBP7 (11715501_s_at) / RFU REEP3 (11722064_at) / Fold change /veh REEP3 (11722064_at) / RFU IGLL1 (11728026_x_at) / Fold change /veh IGLL1 (11728026_x_at): dose or concentration left out as unconfirmed
Settings: MV-4-11 cells, 48 hours

Nc1ncn([C@@H]2O[C@H](CO)[C@@H](O)[C@H]2O)c(=O)n1 [azacitidine]
RFU KIR2DL2 /// KIR2DL4 /// KIR2DL5A /// KIR2DL5B /// KIR2DS1 /// KIR2DS2 /// KIR2DS3 /// KIR2DS4 /// KIR3DL3 /// KIR3DL3 /// KIR3DS1 (11738374_at): 10.60 RFU
